Measurements as given in publication PMC4287843 (ACS Chemical Biology, 2014).
Strand notation (5' to 3'): a small letter for the sugar, then the base; units joined by * are phosphorothioate-linked, units joined directly phosphodiester-linked; [ ] holds rarer units or linkages, { } end groups; capitals alone tell only the bases. m = 2'-O-methyl

How the values were obtained:
[1] = tested on: SMN2 mini-gene splicing in COS7 cells expressing r(CGG)60X; test: SMN2 alternative pre-mRNA splicing in FXTAS cell culture model; format: cell-based
r(CGG)12-DGCR8Δ complex = details: read-out: IC50 for disrupting binding of DGCR8Δ; in vitro; cited from earlier work
r(CGG) repeats = details: cited from earlier work
DGCR8Δ [2] = target: T1, DGCR8Δ (UniProt Q8WYQ5 493-720); test: TR-FRET
T1 sequence: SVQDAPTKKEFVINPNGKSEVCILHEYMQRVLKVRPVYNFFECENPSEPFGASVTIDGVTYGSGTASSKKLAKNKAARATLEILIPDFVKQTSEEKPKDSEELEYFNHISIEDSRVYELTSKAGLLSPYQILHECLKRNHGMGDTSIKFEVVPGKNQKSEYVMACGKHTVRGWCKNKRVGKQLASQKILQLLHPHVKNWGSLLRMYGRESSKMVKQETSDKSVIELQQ

DGCR8Δ [3] = target: T1, DGCR8Δ; test: EMSA

## 2’OMe-PS-(CUGCGCGUAUUAGUCUACAAGUAAGGGCU-ACGACCU) (mC*mU*mG*mC*mG*mC*mG*mU*mA*mU*mU*mA*mG*mU*mC*mU*mA*mC*mA*mA*mG*mU*mA*mA*mG*mG*mG*mC*mU*mA*mC*mG*mA*mC*mC*mU) [scrambled oligonucleotide]
[1]; 100 and 500 nM oligo (not 4 or 20 nM)
  effect on SMN2 splicing defect: exacerbates splicing defects

## Cc1c2cc[n+](CCN3CCCCC3)cc2c(C)c2c1[nH]c1ccc(O)cc12 [1a, 9-hydroxy-5,11-dimethyl-2-(2-(piperidin-1-yl)ethyl)-6H-pyrido[4,3-b]carbazol-2-ium]
r(CGG)12-DGCR8Δ complex
  IC50: 13 ± 0.4 µM
[1]
  fold less potent than 2H-5 for improving pre-mRNA splicing defects: ~10 fold
r(CGG) repeats
  Kd: 0.076 ± 0.004 µM

## CGGCGGCGGCGGCGGCGGCGGCGGCGGCGGCGGCGG (structured_RNA) [r(CGG)12]
DGCR8Δ [2]
  binding result: binds

## CCGCCGCCGCCGCCGCCGCCGCCG (ssDNA) [d(CCG)8]
DGCR8Δ [3]
  binding result: no binding

## CCGCCGCCGCCGCCGCCGCCGCCGCCGCCGCCGCCG (ssDNA) [d(CCG)12]
DGCR8Δ [3]
  binding result: no binding
